Literature values in US20200215051A1, “NEBULIZATION COMPOSITION COMPRISING TIOTROPIUM AND INDACATEROL” (GLENMARK SPECIALTY S.A., priority 2019, published 2020).

Settings: water

aqueous solubility: very slightly soluble in water
SMILES: CCc1cc2c(cc1CC)CC(NC[C@H](O)c1ccc(O)c3[nH]c(=O)ccc13)C2 [Indacaterol, 5-[(1R)-2-[(5,6-diethyl-2,3-dihydro-1H-inden-2-yl)amino]-1-hydroxyethyl]-8-hydroxy-1H-quinolin-2-one]
